Measurements: PubChem BioAssay (NCI)
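Step 1: Grow cells in 96-well plates. Step 2: Expose to compound for 48 hours at 5 concentrations. Step 3: Interpolate endpoints linearly; if unreached, use highest concentration. GI50 is the concentration that inhibits growth by half. At the TGI there is no net growth.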

Key:
Test in all cases: NCI anticancer screen, dose series, 48 h
786-0 renal = test system: 786-0 renal
A498 renal = test system: A498 renal
A549 NSCLC = test system: A549 NSCLC
ACHN renal = test system: ACHN renal
BT-549 breast = test system: BT-549 breast
CAKI-1 renal = test system: CAKI-1 renal
CCRF-CEM leukemia = test system: CCRF-CEM leukemia
COLO 205 colon = test system: COLO 205 colon
DU-145 prostate = test system: DU-145 prostate
EKVX NSCLC = test system: EKVX NSCLC
HCT-116 colon = test system: HCT-116 colon
HCT-15 colon = test system: HCT-15 colon
HL-60(TB) leukemia = test system: HL-60(TB) leukemia
HOP-62 NSCLC = test system: HOP-62 NSCLC
HOP-92 NSCLC = test system: HOP-92 NSCLC
HS 578T breast = test system: HS 578T breast
HT29 colon = test system: HT29 colon
IGROV1 ovarian = test system: IGROV1 ovarian
K-562 leukemia = test system: K-562 leukemia
KM12 colon = test system: KM12 colon
LOX IMVI melanoma = test system: LOX IMVI melanoma
M14 melanoma = test system: M14 melanoma
MALME-3M melanoma = test system: MALME-3M melanoma
MCF7 breast = test system: MCF7 breast
MDA-MB-231 breast = test system: MDA-MB-231 breast
MDA-MB-435 = test system: MDA-MB-435
MOLT-4 leukemia = test system: MOLT-4 leukemia
NCI-H226 lung = test system: NCI-H226 lung
NCI-H23 lung = test system: NCI-H23 lung
NCI-H460 lung = test system: NCI-H460 lung
NCI/ADR-RES ovarian = test system: NCI/ADR-RES ovarian
OVCAR-3 ovarian = test system: OVCAR-3 ovarian
OVCAR-4 ovarian = test system: OVCAR-4 ovarian
OVCAR-5 ovarian = test system: OVCAR-5 ovarian
OVCAR-8 ovarian = test system: OVCAR-8 ovarian
PC-3 prostate = test system: PC-3 prostate
RPMI-8226 leukemia = test system: RPMI-8226 leukemia
RXF 393 renal = test system: RXF 393 renal
SF-268 CNS = test system: SF-268 CNS
SF-295 CNS = test system: SF-295 CNS
SF-539 CNS = test system: SF-539 CNS
SK-MEL-2 melanoma = test system: SK-MEL-2 melanoma
SK-MEL-28 melanoma = test system: SK-MEL-28 melanoma
SK-MEL-5 melanoma = test system: SK-MEL-5 melanoma
SK-OV-3 ovarian = test system: SK-OV-3 ovarian
SN12C renal = test system: SN12C renal
SNB-19 CNS = test system: SNB-19 CNS
SNB-75 CNS = test system: SNB-75 CNS
SR leukemia = test system: SR leukemia
SW-620 colon = test system: SW-620 colon
T-47D breast = test system: T-47D breast
TK-10 renal = test system: TK-10 renal
U251 CNS = test system: U251 CNS
UACC-257 melanoma = test system: UACC-257 melanoma
UACC-62 melanoma = test system: UACC-62 melanoma
UO-31 renal = test system: UO-31 renal

SMILES: CCC(=O)[C@H](C)[C@@H](OC(=O)[C@H](C)CC)[C@H](C)[C@H]1OC(CC)=C(C)C(=O)[C@@H]1C
- GI50 (786-0 renal): 25.5 µM
- TGI (786-0 renal): 84.2 µM
- GI50 (A498 renal): 25.2 µM
- TGI (A498 renal): 73 µM
- GI50 (A549 NSCLC): 30.9 µM
- TGI (A549 NSCLC): > 100 µM
- GI50 (ACHN renal): 30 µM
- TGI (ACHN renal): > 100 µM
- GI50 (BT-549 breast): 16.6 µM
- TGI (BT-549 breast): 34.9 µM
- GI50 (CAKI-1 renal): 21.2 µM
- TGI (CAKI-1 renal): 52 µM
- GI50 (CCRF-CEM leukemia): 19.7 µM
- TGI (CCRF-CEM leukemia): 44.8 µM
- GI50 (COLO 205 colon): 14.9 µM
- TGI (COLO 205 colon): 29.3 µM
- GI50 (DU-145 prostate): 23.4 µM
- TGI (DU-145 prostate): 68.4 µM
- GI50 (EKVX NSCLC): 23.9 µM
- TGI (EKVX NSCLC): 73.9 µM
- GI50 (HCT-116 colon): 9.98 µM
- TGI (HCT-116 colon): 72.4 µM
- GI50 (HCT-15 colon): 17 µM
- TGI (HCT-15 colon): 42.2 µM
- GI50 (HL-60(TB) leukemia): 15.3 µM
- TGI (HL-60(TB) leukemia): 40.3 µM
- GI50 (HOP-62 NSCLC): 21.2 µM
- TGI (HOP-62 NSCLC): 48.1 µM
- GI50 (HOP-92 NSCLC): 23.1 µM
- TGI (HOP-92 NSCLC): 62.1 µM
- GI50 (HS 578T breast): 30.3 µM
- TGI (HS 578T breast): 89.3 µM
- GI50 (HT29 colon): 13.4 µM
- TGI (HT29 colon): 32.8 µM
- GI50 (IGROV1 ovarian): 17.1 µM
- TGI (IGROV1 ovarian): 46.7 µM
- GI50 (K-562 leukemia): 39.3 µM
- TGI (K-562 leukemia): > 100 µM
- GI50 (KM12 colon): 19.5 µM
- TGI (KM12 colon): 52.5 µM
- GI50 (LOX IMVI melanoma): 16.9 µM
- TGI (LOX IMVI melanoma): 30.5 µM
- GI50 (M14 melanoma): 22.8 µM
- TGI (M14 melanoma): 72.5 µM
- GI50 (MALME-3M melanoma): 19.9 µM
- TGI (MALME-3M melanoma): 42.4 µM
- GI50 (MCF7 breast): 26.3 µM
- TGI (MCF7 breast): 89 µM
- GI50 (MDA-MB-231 breast): 13.3 µM
- TGI (MDA-MB-231 breast): 30.9 µM
- GI50 (MDA-MB-435): 21.5 µM
- TGI (MDA-MB-435): 56.1 µM
- GI50 (MOLT-4 leukemia): 19.1 µM
- TGI (MOLT-4 leukemia): 53.6 µM
- GI50 (NCI-H226 lung): 16 µM
- TGI (NCI-H226 lung): 31.6 µM
- GI50 (NCI-H23 lung): 19.6 µM
- TGI (NCI-H23 lung): 92.4 µM
- GI50 (NCI-H460 lung): 15.7 µM
- TGI (NCI-H460 lung): 36.2 µM
- GI50 (NCI/ADR-RES ovarian): 18.6 µM
- TGI (NCI/ADR-RES ovarian): 55 µM
- GI50 (OVCAR-3 ovarian): 17.4 µM
- TGI (OVCAR-3 ovarian): 36.8 µM
- GI50 (OVCAR-4 ovarian): 29 µM
- TGI (OVCAR-4 ovarian): > 100 µM
- GI50 (OVCAR-5 ovarian): 15.4 µM
- TGI (OVCAR-5 ovarian): 48 µM
- GI50 (OVCAR-8 ovarian): 42.4 µM
- TGI (OVCAR-8 ovarian): > 100 µM
- GI50 (PC-3 prostate): 16.8 µM
- TGI (PC-3 prostate): > 100 µM
- GI50 (RPMI-8226 leukemia): 10.1 µM
- TGI (RPMI-8226 leukemia): 35.1 µM
- GI50 (RXF 393 renal): 21.5 µM
- TGI (RXF 393 renal): 46.4 µM
- GI50 (SF-268 CNS): 25.3 µM
- TGI (SF-268 CNS): > 100 µM
- GI50 (SF-295 CNS): 21.8 µM
- TGI (SF-295 CNS): 43.7 µM
- GI50 (SF-539 CNS): 18.1 µM
- TGI (SF-539 CNS): 33.1 µM
- GI50 (SK-MEL-2 melanoma): 24.6 µM
- TGI (SK-MEL-2 melanoma): 50.2 µM
- GI50 (SK-MEL-28 melanoma): 21.2 µM
- TGI (SK-MEL-28 melanoma): 57.4 µM
- GI50 (SK-MEL-5 melanoma): 15.3 µM
- TGI (SK-MEL-5 melanoma): 28.8 µM
- GI50 (SK-OV-3 ovarian): 37.1 µM
- TGI (SK-OV-3 ovarian): > 100 µM
- GI50 (SN12C renal): 15.4 µM
- TGI (SN12C renal): 29.8 µM
- GI50 (SNB-19 CNS): 42.6 µM
- TGI (SNB-19 CNS): > 100 µM
- GI50 (SNB-75 CNS): 31.8 µM
- TGI (SNB-75 CNS): 80.3 µM
- GI50 (SR leukemia): 13.5 µM
- TGI (SR leukemia): 42.3 µM
- GI50 (SW-620 colon): 24.7 µM
- TGI (SW-620 colon): 62.5 µM
- GI50 (T-47D breast): 18.1 µM
- TGI (T-47D breast): > 100 µM
- GI50 (TK-10 renal): 30.7 µM
- TGI (TK-10 renal): 88.9 µM
- GI50 (U251 CNS): 17.6 µM
- TGI (U251 CNS): 35.8 µM
- GI50 (UACC-257 melanoma): 33.2 µM
- TGI (UACC-257 melanoma): > 100 µM
- GI50 (UACC-62 melanoma): 13.7 µM
- TGI (UACC-62 melanoma): 27.7 µM
- GI50 (UO-31 renal): 24 µM
- TGI (UO-31 renal): 66.6 µM
